Like-named read-outs stand apart in the source and are kept apart here.
Experiments:
Assay type in all cases: cell-based
HIV-1NL4-3 [1] = assay: HIV-1 infectivity in TZM-bl cells (F-Luc); conditions: Human immunodeficiency virus 1, TZM-bl, 48 h, Table S1, WT virus, TZM-bl, fivefold serial dilutions, MOI 1, 48 h
Experimental: The TZM-bl cells (also referred to as JC53BL-13) expressing human CD4, CXCR4, and CCR5 carrying the F-Luc and lacZ genes downstream of the HIV-1 LTR promoter ([60]) were used to determine the inhibitory effect of the compounds on HIV-1 infection, as previously described ([11], [12], [61]). In brief, 1 × 10^4 cells were cultured in 96-well plates for 24 h and subsequently treated with compounds at the indicated concentrations. Without replacement of the culture medium, the cells were subsequently infected with the HIV-1NL4-3 wild-type or ARV-resistant HIV-1 strains at an MOI of 1 to determine the exact inhibitory effect of compounds on a single-round infection. After 48 h, the inhibitory effect of the compounds was determined using a Bright Glo luciferase assay kit (Promega) or β-Galactosidase Enzyme Assay kit (Promega). The infectivity data were presented as a percentage relative to the dimethyl sulfoxide (DMSO) control (vehicle). Cell viability was determined using the resazurin-based PrestoBlue Cell Viability Reagent (Thermo Fisher Scientific, Waltham, MA, USA) following the manufacturer’s instructions.

[2] = tested on: NRTI-resistant HIV-1 strain 7396; assay: microbe, parasite or virus in culture; conditions: Human immunodeficiency virus 1, TZM-bl
Experimental: (§1) Fig 7 (A–C) TZM-bl cells (1 × 10^4 cells/well) cultured in a 96-well plate were treated with fivefold serial dilutions of the indicated compound or ARV for 1 h before infection with the HIV-1NL4-3 or ARV-resistant HIV-1 strains at an MOI of 1, respectively. At 48 h after infection, the EC50 values were determined using an F-Luc activity. The symbols represent the fold-change values of EC50 against each mutant virus relative to the wild-type (WT) virus. (D) PBMCs (5 × 10^4 cells/well) were infected with the HIV-1NL4-3 and PIs-resistant HIV-1 strain at an MOI of 0.1, respectively. Subsequently, the PBMCs were treated with 10-fold serial dilutions of the indicated compounds or PI. At 3 days after infection, the EC50 values on the viral replication were determined using a p24 […] assay kit. (E) The inhibitory kinetics for the WT and ARV-resistant viruses. TZM-bl cells infected with WT or ARV-resistant viruses were cultured upon fivefold serial dilutions of each compound for 2 days and the infectivity was determined using an F-Luc activity.
(§2) The Tzm-bl-derived dual Tat reporter; TZM-bl/Tat/Rluc (bl-DTR) cells were established from TZM-bl cells using two Dox-inducible lentiviral expression cassettes cloned with Flag-tagged Tat86 and the R-Luc gene, as described in our previous study ([11]). TZM-bl, A3.01, J1.1, and J-Lat 6.3 cells as well as the HIV-1 molecular clone pNL4-3, pNL(AD8), ARV-resistant HIV-1 strains, and HIV-1NL43-IRES-eGFP (pBR43IeG-nef^+, gifted by Dr. Frank Kirchhoff) ([52]) were provided by the National Institute of Health HIV Reagent Program (NIH, Bethesda, MD, USA). HeLa (CCL-2) and 293T (CRL-3216) cell lines were purchased from the American Type Culture Collection (ATCC, Manassas, VA, USA). The bl-DTR, TZM-bl, HeLa, and 293T cells were cultured in Dulbecco’s modified Eagle’s medium supplemented with 1% penicillin–streptomycin and 10% (vol/vol) heat-inactivated fetal bovine serum (all from Gibco-BRL, Gaithersburg, MD, USA), and 1 µg/mL of puromycin and 200 µg/mL of zeocin were additionally supplemented for the bl-DTR cells. PBMCs were purchased from AllCells (Alameda, CA, USA) and cultured as previously described ([12]). The information on ARV-resistant HIV-1 strains was described in previous reports as follows: NNRTI-resistant 12241 and 12243 ([53]); NRTI-resistant 7396, 7406, and 7407 ([54]); INSTI-resistant 11847 and 11849 ([55], [56]); and PI-resistant 11800 and 11803 ([57]). Each molecular HIV-1 clone was transfected to 293T cells, as previously described ([58]), to obtain infectious HIV-1 particles. Virus-containing cell culture supernatants were collected 3 days after transfection, and filtered through a 0.45-µm membrane filter (Millipore Sigma, Burlington, MA, USA) to remove cell debris. The viral titration was performed as described previously ([59]) with some minor modifications. In brief, 1 × 10^4 TZM-bl cells seeded in 96-well plates were infected with 200 µL of virus-containing medium diluted serially twofold. The incubation was for 2 days and the experiment was performed in triplicate; the infection time minimized the virus spread ([59]). The titration of the infectious viral particles was performed with a ß-Gal staining assay using the ßeta-Galactosidase Staining Kit (Mirus Bio, Madison, WI, USA) following the manufacturer’s protocols. In brief, the infected cells were washed with phosphate-buffered saline (PBS) and fixed using a Cell Fixative Working solution. The cells were washed with PBS and stained using the Cell Staining Working Solution containing X-gal. The infected blue-colored cells were counted under a microscope (100× magnification). The infectious virus titer was determined as a mean value of blue-colored cells count × dilution factor and used for determining the multiplicity of infection (MOI) in each infection experiment.

[3] = tested on: NRTI-resistant HIV-1 strain 7406; assay: microbe, parasite or virus in culture; conditions: Human immunodeficiency virus 1, TZM-bl
Experimental: as §1, §2

[4] = tested on: NRTI-resistant HIV-1 strain 7407; assay: microbe, parasite or virus in culture; conditions: Human immunodeficiency virus 1, TZM-bl
Experimental: as §1, §2

HIV-1NL4-3 [5] = assay: Time-of-addition assay in TZM-bl cells; conditions: HIV-1NL4-3 MOI 1, 9 and 13 1.5 μM, T-20 1 µM, triptolide 5 nM, ARVs 1 µM, F-Luc at 54 h
Experimental: Fig 5 (A) Time-of-addition assay. […] Subsequently, the cells were treated with the compounds at the indicated time points (0, 1, 2, 4, 6, 8, 10, 12, 24, 30, 36, 42, and 48 h) after HIV-1 infection. The final concentrations of compounds are described in Materials and Methods. Viral activity according to the timing of drug addition was measured as F-Luc activity at 54 h after infection. The relative activities are represented as the mean ± SD (n = 3) compared with the activity observed 54 h post-infection. The relative time frames associated with each HIV-1 infection step are defined based on the time frame of susceptibility to the drug that blocks that particular infection step. […] At 16 h after infection, the viral reverse transcription (RT) product (viral cDNA) level was determined by quantitative real-time PCR (RT-qPCR) using gag and 18S rRNA primer sets and represented as the mean ± SD (n = 3) normalized against the amount of the 18S rRNA compared with the DMSO control. **P < 0.01 compared with the vehicle (DMSO). (C) An in vitro integrase (IN) assay was performed with 10 µM of the indicated compounds following the manufacturer’s protocol. **P < 0.01 compared with vehicle (DMSO). (D) A3.01 cells were infected with HIV-1 upon treatment with the indicated compounds (5 µM) and ARVs (EFV and DTG) as the experimental controls. At 40 h after infection, cellular chromosomal DNA was purified, and the integrated proviral DNA was detected through nested Alu-PCR amplification.
A time-of-addition assay was performed as previously described ([25]) with minor modifications. […] Reference drug and test compounds were subsequently added at the indicated time (0, 1, 2, 4, 6, 8, 10, 12, 24, 30, 36, 42, and 48 h after infection). Final concentrations were as follows: compounds 9 and 13 (1.5 μM), T-20 (1 µM), Triptolide (5 nM), and ARVs (AZT, EFV, DTG, RAL) (1 µM). The viral activity according to the timing of drug addition was measured using a Bright Glo luciferase assay kit (Promega). Virus activity curves present a % activity relative to the activity observed at 54 h after infection, and the data are presented as the mean ± standard deviation (SD) (n = 3). The relative time frame associated with each HIV-1 infection step was defined based on the sensitivity to each drug that blocks a particular infection step.

HIV-1NL4-3 [6] = assay: HIV-1 replication in PBMCs (p24 […]); conditions: Table S1, WT virus, 10-fold serial dilution
Experimental: The p24 level from the cell supernatant was subsequently determined using a p24 […] kit (PerkinElmer). In parallel, the cell viability was determined without viral infection because of the viral cytopathic effect. […] In parallel, cell viability was determined. The data (A and B) are presented as the mean ± SD (n = 3). (C) PBMCs (4 × 10^5) infected with HIV-AD8 at an MOI of 0.1 were treated with 1.5 µM of the compounds or ARVs for 3 days. The levels of p24 and cell viability were subsequently determined. (D) J1.1 cells were cultured with the compounds ([…]) under 50 ng/mL phorbol myristate acetate (PMA) treatment for 2 days. The level of p24 was subsequently determined. (E) J-Lat 6.3 cells were treated with the compounds (1.5 µM) under 1 µg/mL of PMA for 2 days. The GFP-positive cell population was analyzed using flow cytometry. The data are represented as a value relative to the DMSO-treated vehicle (D) and a percent of the GFP^+ cell population (E) as mean ± SD (n = 3).
The inhibitory effects of the compounds on viral replication were determined with some minor modifications, as previously described ([12], [62]). […] PBMCs (4 × 10^5) pre-activated with PHA-M for 3 days were washed with fresh media to remove excess PHA-M and subsequently infected with HIV-1NL4-3 or HIV-1AD8 or PIs-resistant HIV-1 strains as A3.01 infection. After infection, the infectious media were replaced with fresh media supplemented with international 10 units (IU)/mL of IL-2 and the indicated compounds. At 72 h after infection, the inhibitory effect of the compounds on viral replication was determined by measuring the p24 amount, an HIV capsid protein, using an HIV-1 p24 […] kit (PerkinElmer, Waltham, MA, USA). Cell viability was determined as described above. The inhibitory effects on provirus reversing in J1.1 and J-Lat 6.3 cells were determined as previously described ([12], [41], [63]) with some minor modifications. Briefly, 5 × 10^4 persistently HIV-1-infected J1.1 or J-Lat 6.3 cells were cultured in either the presence or absence of the compounds at a final concentration of 1.5 µM and treated with PMA (50 ng/mL for J1.1 cells, 1 µg/mL for J-Lat 6.3 cells). Two days after treatment, the levels of viral production were determined using p24 […] for J1.1 cells and flow cytometry analysis for GFP-expressing J-Lat 6.3 cells.

[7] = tested on: PI-resistant HIV-1 strain 11800; assay: microbe, parasite or virus in culture
Text: as §2
(§3) The inhibitory effects of the compounds on viral replication were determined with some minor modifications, as previously described ([12], [62]). […] PBMCs (4 × 10^5) pre-activated with PHA-M for 3 days were washed with fresh media to remove excess PHA-M and subsequently infected with HIV-1NL4-3 or HIV-1AD8 or PIs-resistant HIV-1 strains as A3.01 infection. After infection, the infectious media were replaced with fresh media supplemented with international 10 units (IU)/mL of IL-2 and the indicated compounds. At 72 h after infection, the inhibitory effect of the compounds on viral replication was determined by measuring the p24 amount, an HIV capsid protein, using an HIV-1 p24 […] kit (PerkinElmer, Waltham, MA, USA). Cell viability was determined as described above. The inhibitory effects on provirus reversing in J1.1 and J-Lat 6.3 cells were determined as previously described ([12], [41], [63]) with some minor modifications.

[8] = tested on: PI-resistant HIV-1 strain 11803; assay: microbe, parasite or virus in culture
Text: as §2, §3

[9] = Human immunodeficiency virus 1, PBMC
[10] = PI-resistant 11800, PBMCs, 10-fold serial dilution, read-out: EC50
[11] = PI-resistant 11803, PBMCs, 10-fold serial dilution, read-out: EC50

For `Nc1ccn([C@@H]2CS[C@H](CO)O2)c(=O)n1` [Compound 3TC, lamivudine], the EC50 (HIV-1NL4-3 [1]) was 1.23 ± 0.22 µM, the EC50 [2] was 3.64 ± 1.37 µM and the EC50 [3] was > 100 µM. For the same compound, the EC50 [4] was > 100 µM.
With `Cc1cn([C@H]2C[C@H](N=[N+]=[N-])[C@@H](CO)O2)c(=O)[nH]c1=O` [AZT, zidovudine] the EC50 (HIV-1NL4-3 [1]; read-out: EC50) was 0.11 ± 0.01 µM, the EC50 [2] was 16.4 ± 1.37 µM and the EC50 [3] was 73.12 ± 0.43 µM. The EC50 [4] was > 100 µM and the “time of administration after infection at which effectiveness began to decrease / was lost” value (HIV-1NL4-3 [5]) was 6 h.
For `CC(C)CN(C[C@@H](O)[C@H](Cc1ccccc1)NC(=O)O[C@H]1CO[C@H]2OCC[C@H]21)S(=O)(=O)c1ccc(N)cc1` [DRV, darunavir], the EC50 (HIV-1NL4-3 [6]; [9]) was < 0.001 µM, the EC50 [7, 9] was 0.15 ± 0.02 µM and the EC50 [8, 9] was 0.03 ± 0.01 µM.
`Nc1nc(NC2CC2)c2ncn([C@H]3C=C[C@@H](CO)C3)c2n1` [ABC, abacavir] was tested, and the EC50 (HIV-1NL4-3 [1]; read-out: EC50) was 12.2 ± 7.48 µM, the EC50 [2] was 22.4 ± 0.39 µM and the EC50 [3] was > 100 µM. The EC50 [4] was > 100 µM.
In the case of `CC(C)(C)NC(=O)[C@@H]1C[C@@H]2CCCC[C@@H]2CN1C[C@@H](O)[C@H](Cc1ccccc1)NC(=O)[C@H](CC(N)=O)NC(=O)c1ccc2ccccc2n1` [SQV, sequinavir], the EC50 (HIV-1NL4-3 [6]; read-out: EC50) is reported as 0.00824 ± 0.00015 µM, the EC50 [7, 10] is reported as 0.01 µM and the EC50 [8, 11] is reported as 1.24 ± 0.13 µM.
For `Cc1c(O)cccc1C(=O)N[C@@H](CSc1ccccc1)[C@H](O)CN1C[C@H]2CCCC[C@H]2C[C@H]1C(=O)NC(C)(C)C` [NFV, nelfiravir], the EC50 (HIV-1NL4-3 [6]; read-out: EC50) was < 0.001 µM, the EC50 [7, 10] was 0.42 ± 0.02 µM and the EC50 [8, 11] was 1.64 ± 0.22 µM.

— PMC11459959, “Discovery of new acetamide derivatives of 5-indole-1,3,4-oxadiazol-2-thiol as inhibitors of HIV-1 Tat-mediated viral transcription” (Antimicrobial Agents and Chemotherapy, 2024)
